Experimental data: US11666583B2, “Methods of treating cortical dementia associated wandering” (WOOLSEY PHARMACEUTICALS, INC., priority 2020, dated 2023)
Counter-ions that a name gives are not always drawn.

Assays:
[1] = 1-hydroxy (M3) metabolite; cited from earlier work
[2] = target: p38 mitogen-activated protein kinase (Homo sapiens, UniProt Q16539); details: cited from earlier work
[3] = test system: patients with Alzheimer's Dementia (AD) and cortical vascular dementia (VaD); assay: Clinical trial of oral fasudil on frequency of wandering (Example 1); type: in vivo, human
From the text: Twenty patients, 10 with AD and 10 with VaD (confirmed by […]) who are characterized wanderers, are enrolled into the study and observed for 2 weeks to confirm wandering behavior. […] The double-blind phase is followed by another treatment period of 6 weeks with the opposite treatment assignment (placebo or test drug taken with food).
• a. Walks distinctly more than average as others of same age and ability AND/OR • b. Elopement behavior≥3× per week in the opinion of the investigator Criteria for Entering First Double-Blind Treatment Period: Wanders: • a. Walks less than half the mean distance measured in observation period AND/OR • b. Elopement behavior<1× per week in the opinion of the investigator AND/OR • c. Wandering has improved in the opinion of the Investigator. 4. For entering observation period and for entering open label treatment period: • a. MMSE between 10 and 25.
Wandering is measured in term of time in motion and distance traveled (measures of persistent wandering), attempted and successful boundary transgressions (measures of elopement) and patterns like pacing a lapping (indicative of persistent wandering and/or agitation or anxiety) using an electronic tracking device. A typical tracking device would use a combination of accelerometry with positioning, using technology like RFID or Bluetooth in an indoor environment and GPS outdoors. Other wayfinding, orientation and memory-associated wandering incidents are observed and recorded manually.
The Mini Mental State Exam (MMSE), the Woolsey Wandering Questionnaire and the Revised Algase Wandering Scale are administered at baseline and at the end of each treatment period. Any change in the use of antipsychotics or anxiolytics that could affect movement during the study is strongly discouraged.

[4] = test system: patients with wandering due to VaD; details: cited from earlier work
APP/PS1 transgenic mice = details: 5 and 10 mg/kg/day intraperitoneally; cited from earlier work
streptozotocin rats = details: 5 and 10 mg/kg/day intraperitoneally; cited from earlier work
[5] = test system: triple transgenic mouse model (APP Swedish, MAPT P301L, and PSEN1 M146V); details: 10 mg/kg/day intraperitoneally; cited from earlier work
triple transgenic mice = details: 30 mg/kg and 100 mg/kg in water, 10 or 12 months of age; cited from earlier work

Chain of p38 mitogen-activated protein kinase (Q16539 whole entry): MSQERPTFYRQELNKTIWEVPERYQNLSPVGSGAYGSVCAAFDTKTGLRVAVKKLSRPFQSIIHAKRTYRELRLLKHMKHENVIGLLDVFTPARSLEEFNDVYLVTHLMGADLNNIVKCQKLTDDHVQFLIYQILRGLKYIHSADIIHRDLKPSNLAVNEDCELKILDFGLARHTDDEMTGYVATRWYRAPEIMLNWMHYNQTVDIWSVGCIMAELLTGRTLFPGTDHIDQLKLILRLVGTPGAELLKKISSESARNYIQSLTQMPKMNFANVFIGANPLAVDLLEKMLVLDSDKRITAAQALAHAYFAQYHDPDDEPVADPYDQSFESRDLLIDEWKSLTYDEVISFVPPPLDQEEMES

For `O=S(=O)(c1cccc2c(O)nccc12)N1CCCNCC1` [M3], the half-life [1] is listed as “about 8 hours”.
In the case of `O=c1ncn2nc(Sc3ccc(F)cc3F)ccc2c1-c1c(Cl)cccc1Cl` [Neflamapimod], the “primary endpoint of improving episodic memory” value ([2]; Phase 2) is given as “failed”, the “tau in the cerebrospinal fluid” value ([2]; Phase 2) is given as “reducing tau” and the Aβ deposition ([2]; humans) is given as “no effect”.
With `O=S(=O)(c1cccc2cnccc12)N1CCCNCC1` [fasudil, Hexahydro-1-(5-isoquinolinesulfonyl)-1H-1,4-diazepine monohydrochloride hemihydrate] the “measures of caregiver burden” value ([3]; on drug, 90 mg/day) was “significant effect”, the “reduction in wandering, at least one item of the RAWS and/or the WWQ” value ([3]; oral 90 mg/day (30 mg TID), 6 weeks, AD and cortical VaD wanderers) was “significant reduction” and the “mean increase in MMSE score” value ([3]; persistent wanderers, 90 mg/day) was “greater than 3 points”. The “reduction of activity levels” value ([3]; persistent wanderers, on drug as compared to placebo, 90 mg/day) was “about 50%”, the “wayfinding errors and other problematic behaviors” value ([3]; sporadic wanderers, while on drug) was “significant reduction” and the wandering symptoms ([4]; patient with Binswanger-type cerebral infarction, within weeks of beginning treatment) was “disappeared and remained absent for the duration of treatment”. The wayfinding symptoms ([4]; patient with sequelae of cerebral bleeding and multiple lacunar infarctions (lacunar dementia)) was “disappeared quickly and remained absent for the duration of treatment”, the “latency distance and quadrant time in the Morris water maze” value (APP/PS1 transgenic mice) was “improved” and the “latency distance and quadrant time in the Morris water maze” value (streptozotocin rats) was “improved”. For the same compound, the “ß-amyloid plaques in vivo” value [5] was “reduce ß-amyloid plaques” and the spatial memory (triple transgenic mice) was “did not observe improvements”.
